# Results from patent US20160145242A1, “PHENYLIMIDAZOLE DERIVATIVE, AND THERAPEUTIC MEDICINE OR PREVENTIVE MEDICINE FOR INFLAMMATORY DISEASE, ETC” (NIPPON SODA CO., LTD., priority 2013, published 2016).
# Assays:
# Format in all cases: biochemical
# [1] = molecular target: T1, guinea pig lung-derived leukotriene A4 hydrolase (Cavia porcellus, UniProt P19602); assay: Leukotriene A4 hydrolase activity inhibitory action; conditions: read-out: leukotriene A4 hydrolase activity inhibition rate
# T1 construct: guinea pig lung-derived leukotriene A4 hydrolase; from tissue; host or cells: Dunkin-Hartley guinea pig lung
# T1 sequence (P19602 1-611): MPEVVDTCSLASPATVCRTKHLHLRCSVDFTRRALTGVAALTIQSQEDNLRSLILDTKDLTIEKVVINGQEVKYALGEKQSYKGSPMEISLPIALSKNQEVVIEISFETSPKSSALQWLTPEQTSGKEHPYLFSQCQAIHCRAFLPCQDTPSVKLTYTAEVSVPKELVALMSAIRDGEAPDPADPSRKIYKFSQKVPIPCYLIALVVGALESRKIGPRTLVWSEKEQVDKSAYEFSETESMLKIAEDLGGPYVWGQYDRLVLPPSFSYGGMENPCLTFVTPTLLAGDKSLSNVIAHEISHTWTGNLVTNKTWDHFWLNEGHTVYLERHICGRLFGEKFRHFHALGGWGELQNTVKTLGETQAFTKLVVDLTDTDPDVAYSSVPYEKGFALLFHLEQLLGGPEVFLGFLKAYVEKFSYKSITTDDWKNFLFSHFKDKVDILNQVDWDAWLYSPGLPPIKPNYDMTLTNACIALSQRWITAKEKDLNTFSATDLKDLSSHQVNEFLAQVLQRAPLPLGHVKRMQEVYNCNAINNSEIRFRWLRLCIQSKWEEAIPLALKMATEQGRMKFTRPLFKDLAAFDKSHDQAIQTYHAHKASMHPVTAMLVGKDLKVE
# Description: The inhibitory action of the compound according to the present invention with respect to the activity of the present enzyme was examined using guinea pig lung-derived leukotriene A4 hydrolase.
# (§1) Dunkin-Hartley guinea pig lung-derived leukotriene A4 hydrolase was reacted with 1.70 g/mL of leukotriene A4 and the amount of leukotriene B4 which was a reaction product was measured by an enzyme-linked immunosorbent assay. 3 μM of the compound of the present invention dissolved in dimethyl sulfoxide was added to the reaction system and the inhibition rate of leukotriene B4 generation (leukotriene A4 hydrolase activity inhibition rate) was measured.
# [2] = tested on: human recombinant MAP kinase 1; assay: MAP kinase 1 activity inhibitory action; conditions: 3 μM
# Description: The inhibitory action of the compound of the present invention with respect to the activity of the present enzyme was examined using human recombinant MAP kinase 1.
# The human recombinant MAP kinase 1 was reacted with 50.0 μg/mL of myelin basic protein and the amount of ^32P phosphorylated myelin basic protein which was a reaction product was measured by a radioactivity measurement method. 3 μM of the compound according to the present invention dissolved in dimethyl sulfoxide was added to the reaction system and the inhibition rate of ^32P phosphorylated myelin basic protein generation (MAP kinase 1 activity inhibition rate) was measured.
# [3] = molecular target: T2, guinea pig lung-derived leukotriene C4 synthase (Cavia porcellus, UniProt A6XA80); assay: Leukotriene C4 synthase activity inhibitory action; conditions: read-out: leukotriene C4 synthase activity inhibition rate
# T2 construct: guinea pig lung-derived leukotriene C4 synthase; from tissue; host or cells: Dunkin-Hartley guinea pig lung
# T2 sequence (A6XA80 1-150): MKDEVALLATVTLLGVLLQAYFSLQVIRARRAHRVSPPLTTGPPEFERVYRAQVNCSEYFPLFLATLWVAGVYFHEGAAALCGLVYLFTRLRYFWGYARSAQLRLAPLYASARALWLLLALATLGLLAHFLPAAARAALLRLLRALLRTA
# Description: The inhibitory action according to the compound of the present invention with respect to the activity of the present enzyme was examined using guinea pig lung-derived leukotriene C4 synthase.
# as §1, with “C4 synthase” for “A4 hydrolase”, “2.50 μg/mL” for “1.70 g/mL”, “C4” for “B4”
# [4] = tested on: guinea pig liver microsome-derived lipid peroxidase; assay: Lipid peroxidase activity inhibitory action; conditions: 3 μM
# Description: The inhibitory action of the compound according to the present invention with respect to the activity of the present enzyme was examined using guinea pig liver microsome-derived lipid peroxidase.
# Dunkin-Hartley guinea pig lung-derived lipid peroxidase was reacted with 0.25 M of polyvalent unsaturated fatty acids and the amount of malondialdehyde which was a reaction product was measured by an absorbance determination method. 3 μM of the compound according to the present invention dissolved in dimethyl sulfoxide was added to the reaction system and the inhibition rate of malondialdehyde generation (lipid peroxidase activity inhibition rate) was measured.
structure (smiles),measurement,setting,value
"CC(=O)N1CCN(c2ccc(N)c(-n3ccnc3)c2)CC1 [Compound 1-1, 4-acetyl-1-(4-amino-3-imidazole-1-yl-phenyl)piperazine]",inhibition at 3 µM,[1],14%
same,MAP kinase 1 activity inhibition rate,[2],13%
same,inhibition at 3 µM,[3],27%
same,lipid peroxidase activity inhibition rate,[4],13%
